Results taken from the NIST ThermoML archive (doi:10.1016/j.jct.2018.09.037).
Values joined by “and” are separate entries in the source; they are usually repeats but may differ in a detail not shown here. Identical values can stand only once.

Legend:
[1] = xn = mol fraction of the nth substance listed; conditions: 100 kPa, Liquid, Electromagnetic levitation / mass taken directly, volume taken from sample image
[2] = 100 kPa, Liquid, Electromagnetic levitation / mass taken directly, volume taken from sample image

[Pd] [palladium] + [Ni]
[1]
Conditions | mass density
1474 K, x1 = 0.25 | 8842 kg/m3
1480 K, x1 = 0.5 | 9527 kg/m3
1488 K, x1 = 0.5 | 9518 kg/m3
1510 K, x1 = 0.25 | 8793 kg/m3
1513 K, x1 = 0.5 | 9495 kg/m3
1549 K, x1 = 0.5 | 9457 kg/m3 and 9456 kg/m3
1551 K, x1 = 0.25 | 8757 kg/m3
1563 K, x1 = 0.75 | 10175 kg/m3
1586 K, x1 = 0.5 | 9422 kg/m3
1589 K, x1 = 0.75 | 10157 kg/m3
1598 K, x1 = 0.75 | 10153 kg/m3
1611 K, x1 = 0.25 | 8707 kg/m3
1619 K, x1 = 0.75 | 10117 kg/m3
1630 K, x1 = 0.5 | 9386 kg/m3
1653 K, x1 = 0.75 | 10089 kg/m3
1668 K, x1 = 0.25 | 8661 kg/m3
1695 K, x1 = 0.5 | 9341 kg/m3
1701 K, x1 = 0.75 | 10023 kg/m3
1757 K, x1 = 0.25 | 8586 kg/m3
1770 K, x1 = 0.5 | 9275 kg/m3
1774 K, x1 = 0.75 | 9966 kg/m3
1790 K, x1 = 1 | 10670 kg/m3
1795 K, x1 = 1 | 10672 kg/m3
1796 K, x1 = 1 | 10652 kg/m3
1802 K, x1 = 1 | 10686 kg/m3
1809 K, x1 = 1 | 10670 kg/m3
1820 K, x1 = 1 | 10677 kg/m3
1831 K, x1 = 1 | 10627 kg/m3
1835 K, x1 = 0.75 | 9929 kg/m3
1843 K, x1 = 1 | 10654 kg/m3
1856 K, x1 = 1 | 10601 kg/m3
1859 K, x1 = 0.5 | 9186 kg/m3
1870 K, x1 = 0.25 | 8503 kg/m3
1878 K, x1 = 1 | 10558 kg/m3
1889 K, x1 = 1 | 10592 kg/m3
1890 K, x1 = 1 | 10575 kg/m3
1905 K, x1 = 0.75 | 9819 kg/m3
1917 K, x1 = 1 | 10529 kg/m3
1935 K, x1 = 1 | 10478 kg/m3
1951 K, x1 = 1 | 10465 kg/m3

[Pd] [palladium] + [Cu]
[1]
Conditions | mass density [kg/m3]
1374 K, x1 = 0.25 | 8847
1421 K, x1 = 0.25 | 8805
1469 K, x1 = 0.25 | 8762
1523 K, x1 = 0.25 | 8711
1523 K, x1 = 0.5 | 9468
1532 K, x1 = 0.5 | 9456
1562 K, x1 = 0.5 | 9412
1590 K, x1 = 0.25 | 8663
1617 K, x1 = 0.5 | 9371
1653 K, x1 = 0.5 | 9329
1654 K, x1 = 0.75 | 9987
1662 K, x1 = 0.5 | 9329
1678 K, x1 = 0.75 | 9964
1685 K, x1 = 0.25 | 8540
1708 K, x1 = 0.75 | 9936
1718 K, x1 = 0.5 | 9281
1753 K, x1 = 0.75 | 9886
1766 K, x1 = 0.5 | 9221
1784 K, x1 = 0.75 | 9853
1790 K, x1 = 1 | 10670
1795 K, x1 = 1 | 10672
1796 K, x1 = 1 | 10652
1802 K, x1 = 1 | 10686
1805 K, x1 = 0.5 | 9118
1809 K, x1 = 1 | 10670
1820 K, x1 = 1 | 10677
1822 K, x1 = 0.75 | 9805
1831 K, x1 = 1 | 10627
1843 K, x1 = 1 | 10654
1856 K, x1 = 1 | 10601
1857 K, x1 = 0.75 | 9728
1878 K, x1 = 1 | 10558
1889 K, x1 = 1 | 10592
1890 K, x1 = 1 | 10575
1917 K, x1 = 1 | 10529
1935 K, x1 = 1 | 10478
1951 K, x1 = 1 | 10465

[Cu] [copper] + [Pd]
[1], x2 = 0
Conditions | mass density [kg/m3]
1371 K | 7884
1385 K | 7849
1400 K | 7875
1432 K | 7821
1435 K | 7819
1437 K | 7806
1441 K | 7827
1456 K | 7799
1460 K | 7828
1461 K | 7826
1489 K | 7770
1507 K | 7792
1510 K | 7755
1578 K | 7716
1624 K | 7673
1625 K | 7665
1679 K | 7628

[Pd] [palladium]
[2]
Conditions | mass density [kg/m3]
1790 K | 10670
1795 K | 10672
1796 K | 10652
1802 K | 10686
1809 K | 10670
1820 K | 10677
1831 K | 10627
1843 K | 10654
1856 K | 10601
1878 K | 10558
1889 K | 10592
1890 K | 10575
1917 K | 10529
1935 K | 10478
1951 K | 10465

[Cu] [copper]
[2]
Conditions | mass density [kg/m3]
1371 K | 7884
1385 K | 7849
1400 K | 7875
1432 K | 7821
1435 K | 7819
1437 K | 7806
1441 K | 7827
1456 K | 7799
1460 K | 7828
1461 K | 7826
1489 K | 7770
1507 K | 7792
1510 K | 7755
1578 K | 7716
1624 K | 7673
1625 K | 7665
1679 K | 7628
